Experimental data reported in patent publication US20230340406A1, “METHODS AND COMPOSITIONS FOR PRODUCING STEM CELL DERIVED SPINAL GABA INHIBITORY NEURONS FOR USE IN TREATMENT OF SPINAL CORD INJURY” (BrainXell, Inc., priority 2020, published 2023).

System: SCI model in rats
Assay: Spasticity: amplitude of the Hoffman reflex (H-reflex)
Type: in vivo, rat
Settings: for H % following CNO: 12 weeks
Description: Taking advantage of the DREADD-expressing neural cells we transplanted, we asked if the therapeutic effects depend on the activity of the grafted cells.

C[N+]1([O-])CCN(C2=Nc3cc(Cl)ccc3Nc3ccccc32)CC1 [CNO]
H % following CNO injection (cell-transplanted rats (DREADD-expressing cells), 3 mg/kg, 6 weeks, 2 Hz): 47%±4.12% | decrease of H % following CNO injection (cell-transplanted rats, 3 mg/kg, 6 weeks, 1 Hz): not at 1 Hz | H % following CNO injection (cell-transplanted rats, 3 mg/kg, 6 weeks, 5 Hz): 28.21%±5.63% | H % following CNO (cell-transplanted rats, 1 Hz): 26.05%±5.64% | H % following CNO (cell-transplanted rats, 2 Hz): 17.57%±4.98% | H % following CNO (cell-transplanted rats, 5 Hz): 9.09%±1.52% | change of H % in response to CNO treatment (control animals: sham operation, SCI, SCI injected with medium): did not show any changes
